Test results from patent US20050192299A1, “Method of treating or preventing hepatitis B virus” (priority 1992, published 2005).
Values joined by “and” are separate entries in the source; they are usually repeats but may differ in a detail not shown here. Identical values can stand only once. Like-named read-outs stand apart in the source and are kept apart here.

How the values were obtained:
[1] = system: CEM cells; assay: CEM growth with dialyzed FBS (cell number on days 2, 4 and 6); type: cell-based; conditions: Homo sapiens, CCRF-CEM, RPMI 1640 + 5% dialyzed FBS, cell number versus days in culture, read-out: ID50 (CEM cell growth, toxicity)
Experimental: Six wells were seeded as controls. These wells were untreated. […] The cells were pipetted to break clumps, and then 1 ml was removed from each well and diluted into 9 ml saline. The saline+cells were pipetted well to break clumps and counted via a coutler counter. To determine ID50, cell number was plotted versus days in culture.

[2] = target: human cytidine deaminase (Homo sapiens, UniProt P32320); assay: Deamination by deoxycytidine deaminase (HPLC analysis); type: biochemical; conditions: 37° C., 16 hours
human cytidine deaminase, sequence (P32320 whole entry): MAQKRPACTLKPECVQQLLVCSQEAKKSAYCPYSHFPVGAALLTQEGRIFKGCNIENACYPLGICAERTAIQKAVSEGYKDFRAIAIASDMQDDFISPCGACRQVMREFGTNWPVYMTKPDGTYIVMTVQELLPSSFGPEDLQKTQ
Experimental: After each time point, 100 μl of acetonitrile were added to the reaction mixture and agitated. The precipitated proteins were removed by centrifugation, and the supernatent was lyophilized to dryness. The samples were reconstituted with 200 μl of HPLC mobile phase buffer and analyzed on an Alltech RP-18 column. […] The mobile phase was 10% acetonitrile/water unless specified otherwise, and the flow rate was 0.8 ml/minutes.

[3] = system: HBV
[4] = system: mitochondria DNA; assay: cells; type: cell-based; conditions: for IC50: Homo sapiens, CCRF-CEM, CEM cells
Experimental: The CEM cells (5×10^4) cells were collected and freeze-thawed three times. The cell lysate was incubated with RNase (10 μg/ml) at 37° C. for 30 minutes. The sample was treated with proteinase K (100 μg/ml) at 55° C. for 1 hour. A 0.8 volume of supersaturated Nal (2.5 gNaI in 1 ml hot water) was added to the sample and heated at 90° C. for 10 minutes. The DNA was immobilized on nitrocellulose paper by using a slot blot apparatus (Schleicher & Schuell, Keene, NH). The mtDNA on the nitrocellulose paper was detected with a mtDNA specific probe as described previously (Chen, C. H., Cheng, Y. C., “relayed Cytotoxicity and Selective Loss of Mitochondria DNA in Cells Treated with the Anti-Human Immunodeficiency Virus Compound 2′,3′-Dideoxycytidine,” J. Biol. Chem. 264: 11934-11937, 1989).
(§1) Mitochondria DNA content was measured by slot blot hybridization analysis. […] Thus, D4C would be expected to have a mitochondria effect before the anti-HBV effect was achieved as the same phenomenon observed in treatment with ddC.

[5] = system: HBV; assay: Northern blot analysis of HBV-specific RNA transcripts in 2.2.15 cells; type: cell-based, hepatitis B virus; conditions: 2.0 μM, 12 days
Experimental: Total cellular RNA was isolated according to Chomczyndki et al. (Chomczynsk, P., and Sacchi, N., “Single Step Method for RNA Isolation by Acid Guanidinium Thiocyanate-Phenol-Chloroform Extraction,” Analytical Biochemistry, 162: 156-159, 1987). The RNA (20 μg per lane) was electrophoresed through 1% agarose gel containing 1.1×formaldehyde and transferred to Hybond-N membrane. The immobilized RNA was hybridized with ^32P-labeled HBV DNA probe and the membrane was autoradiographed as described above.
Northern blot analysis was performed to analyze HBV RNA transcripts. Three major transcripts of approximately 3.5, 2.5, and 2.1 Kb were detected in the total cellular RNA extract.

[6] = system: HBV; conditions: 12 days; for chromosomally integrated HBV DNA (amount and restriction enzyme pattern): 2.2.15 cells
Experimental: Drug-treated cells were lysed with a buffer containing 10 mM Tris pH 7.5, 5 mM EDTA, 150 mM NaCl and 1% SDS. The cell lysate was digested with 100 μg/ml proteinase K at 55° C. for at least 2 hours and deproteinized by extraction with phenol. Nucleic acids were precipitated with 2 volumes of ethanol. The pellet of nucleic acid was redissolved in 10 mM Tris pH 8.0, 1 mM EDTA followed by 100 μg per ml RNase treatment at 37° C. for 1 hour. Concentrated ammonium acetate was added to the aqueous phase to yield a final 0.4 M ammonium acetate solution. The nucleic acids were precipitated with ethanol.
The chromosomally integrated HBV DNA genome and the episomal DNA can be separated in the gel and can be differentially quantified.

[7] = system: CEM (T lymphoblastoid cells) cells; assay: Cytotoxicity in CEM cells (cell number at day 4); type: cell-based; conditions: 4 days
Experimental: CEM (T lymphoblastoid cells) cells were inoculated in 5 ml RPMI 1640 supplemented with 5% fetal bovine serum at a concentration of 2×10^3 cells per ml. The cells were incubated with different concentrations of compounds for 4 days. At day 4, the cell number was determined by a coulter counter or a hemocytometer.
as §1

[8] = read-out: MTID30 (concentration which caused a 50% reduction in mitochondria DNA content)

| Structure (SMILES) | deamination by deoxycytidine deaminase [2] | IC50 [4, 8] [nM] | IC50 [3] | selectivity ratio [3] | also measured |
| --- | --- | --- | --- | --- | --- |
| Nc1ccn([C@H]2CS[C@@H](CO)O2)c(=O)n1 [(+)3′-thia-2′,3′-dideoxycytidine] | ~100% |  |  |  | IC50 [1]: 1260 nM; inhibition [3]: ~50% |
| Nc1ccn([C@@H]2CS[C@H](CO)O2)c(=O)n1 [(−)3′-thia-2′,3′-dideoxycytidine] | no sign of deamination at all |  |  |  |  |
| Nc1nc(=O)n([C@H]2CS[C@@H](CO)O2)cc1F (racemic) [5-fluoro-3′-thia-2′,3′-dideoxycytidine, (±)5-fluoro-3′-thia-2′,3′-dideoxycytidine] |  | > 200000 | 100 nM | > 2000 | effect on mitochondria DNA synthesis [4]: no effect on mitochondria DNA synthesis was observed; HBV specific RNA transcripts (3.5, 2.5, 2.1 Kb) [5]: not affected at all; chromosomally integrated HBV DNA (amount and restriction enzyme pattern) [6]: unaltered; chromosomally integrated HBV DNA (amount and restriction enzyme pattern) ([6]; listed as 5-fluoro-3′-thia-2′,3-dideoxycytidine): not found to affect the integrated HBV DNAs; episomal HBV DNA in 2.2.15 cells ([6]; different concentrations): decreased in a dose dependent manner |
| Nc1ccn([C@H]2CC[C@@H](CO)O2)c(=O)n1 [ddC, 2′,3′ dideoxycytidine] |  | 22 | 3800 nM and 3600 nM | 2.6 | IC50 ([4]; read-out: MtID50): 22 nM |
| Nc1ccn(C2COC(CO)O2)c(=O)n1 (single isomer, unassigned; (-)) [(−) OddC, (−)-L-B-dioxolane-cytosine] |  |  | < 1 nM |  |  |
| Nc1ccn([C@H]2C[C@H](F)[C@@H](CO)O2)c(=O)n1 [3′-FddC, 3′-fluoro-2′,3′-dideoxycytidine] |  | 110 | 1600 nM | 28.1 | inhibition ([3]; 2 µM): ~50%; ED50 (concentration causing 50% reduction in cell number) [7]: 45000 nM |
| Nc1ccn([C@@H]2CS[C@@H](CO)O2)c(=O)n1 [α-3′-Thia-2′,3′-dideoxycytidine] | no deamination occurred |  |  |  |  |
| Nc1ccn([C@H]2C=C[C@@H](CO)O2)c(=O)n1 [D4C, 2′,3′-didehydro-2′,3′-dideoxycytidine] |  | 2000 | 2400 nM | 9.2 | IC50 ([4]; read-out: MtID50): 2000 nM; ED50 (concentration causing 50% reduction in cell number) [7]: 22000 nM |
